Results taken from patent publication US20020052323A1, “Quinoline-(C=O)-(multiple amino acids)-leaving group compounds for pharmaceutical compositions and reagents” (priority 2000, published 2002).
Counter-ions that a name gives are not always drawn. Peptide text beside a SMILES is read from it. * marks the point of attachment. Cbz = O=C(OCc1ccccc1)*; CH2F = FC*

Legend:
caspase 1 = target: T1, caspase 1 (Homo sapiens, UniProt P29466); experiment: Caspase inhibition assay, AcYVAD-AFC substrate; format: biochemical; conditions: from figure, antilog of log concentration; read-out: IC50 caspase 1
T1 sequence (P29466 120-297 limits assumed): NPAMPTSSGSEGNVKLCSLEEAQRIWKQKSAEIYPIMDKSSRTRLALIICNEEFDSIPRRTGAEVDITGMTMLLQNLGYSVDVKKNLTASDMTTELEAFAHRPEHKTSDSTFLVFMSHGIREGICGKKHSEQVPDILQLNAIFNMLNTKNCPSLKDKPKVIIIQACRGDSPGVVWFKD
T1 sequence (P29466 317-404 limits assumed): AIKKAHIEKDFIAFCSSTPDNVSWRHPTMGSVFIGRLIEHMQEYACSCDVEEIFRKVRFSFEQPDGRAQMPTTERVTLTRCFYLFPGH
Experimental: The determination of the IC50/μm was performed according to Gary Johnson, 9401 James Avenue, Suite No. 155, Bloomington, Minn. 55431.
Caspase Inhibition Assay:—Caspases are diluted in caspase buffer, 0.1 M HEPES, 10% sucrose 0.1% CHAPS and 10 mM DTT, pH 7.5. Caspases 1, 3, and 8 are used at a concentration of 144 U/well and caspase 9 is used at 4.8 U/well in a 96 well fluorometric plate.
Inhibitors are initially dissolved in DMSO at 10 mg/ml and further dilutions can be prepared in caspase buffer. The inhibitors are generally tested at concentrations ranging from 50 uM to 0.005 uM. These are usually prepared as 2 fold or 2.5 fold decreasing dilutions. The enzyme approximately 144 U in 120 ul caspase buffer is added to 380 ul caspase buffer containing the appropriate concentration on the inhibitor and incubated on ice for 15 min. The reactants 200 ul are then added to a black fluorimetric plate and incubated in the fluorometer at 37° C. for 30 min.
During the incubation period appropriate coumarin substrates are prepared by dilution in DMSO and caspase buffer to provide a 0.417 mM working stock. AcYVAD-AFC is used for caspase 1, AcDEVD-AFC for caspase 3. AcIETD-AFC for caspase 8 and Ac-LEHD-AFC for capsase 9. Twenty five microliters of the stock solution are added to 200 ul of the caspase and inhibitor test solutions to give a final substrate concentration of 0.046 mM.
The fluorometer is set to 400 nm excitation and 505 nm emission. The enzyme-inhibitor-substrate is allowed to incubate at for an additional twenty min. and the response is read as fluorescence units vs inhibitor concentration. The responses are plotted as percent of the maximum response (response in the absence of inhibitor) for each concentration of the inhibitor. The inhibitory activity for each inhibitor is described as the concentration of inhibitor that produces a 50% inhibition of the maximum response (IC50).

WEHI 231 cells [1] = experiment: TUNEL analysis, inhibitor alone (toxicity control); format: cell-based, murine; conditions: no ActD
Experimental: Flow Cytometry measures the percent of the cell population undergoing apoptosis. The effect of the inhibitors is identified as a reduction in the percent of the cell population undergoing apoptosis. Cell Type: WEHI 231 cells, murine immature B cells (suspension) Plate cells at 2×10^5/ml in 10 ml of media (Total 2×10^6 cells) Preincubate caspase inhibitors (Formula I) one hour before inducing apoptosis. […] [table] Process fixed cells for Tunel using the Apo-BRDU kit from Pharmingen (San Diego, Calif.) following the manufacturer's instructions and analyze by flow cytometry.

WEHI 231 cells [2] = experiment: TUNEL analysis of Actinomycin D induced apoptosis, flow cytometry; format: cell-based, murine; design: key to rank of result in TUNEL analysis: ***: Best result; **: Second best result; *: Third best result; conditions: for effective concentration in TUNEL test: blind test by TUNEL method, conclusions; for efficacy in TUNEL test, in words: 10 sequences in a blind test
Experimental: Flow Cytometry measures the percent of the cell population undergoing apoptosis. The effect of the inhibitors is identified as a reduction in the percent of the cell population undergoing apoptosis. Cell Type: WEHI 231 cells, murine immature B cells (suspension) Plate cells at 2×10^5/ml in 10 ml of media (Total 2×10^6 cells) Preincubate caspase inhibitors (Formula I) one hour before inducing apoptosis. […] Actinomycin D (ActD) stock is 1 μg/μl add 10 μl/10 ml)-Treat 4 h Process for Tunel Analysis. (See Table 2 below). […] Cell Processing for Tunel Analysis and Flow Cytometry. Centrifuge cells at 300× g for 5 min and aspirate supernatant. Resuspend cells in 5.0 ml of cold 1× PBS, Spin at 300× g, 5 min. Aspirate supernatant. […] Incubate for 15 min. on ice. […] Aspirate supernatant. […] Aspirate supernatant. […] Aspirate supernatant. Resuspend the cell in 300 μl of cold IX PBS, Transfer to a 1.5 ml tube. […] Store at −20° C. at least 18 hr prior to Tunel Labeling Fixed cells are stable for at least 30 days. Process fixed cells for Tunel using the Apo-BRDU kit from Pharmingen (San Diego, Calif.) following the manufacturer's instructions and analyze by flow cytometry.

[3] = 1 μM inhibitor + ActD, WEHI 231, lower = greater inhibitory activity
[4] = 10 μM inhibitor + ActD, WEHI 231
[5] = 20 μM inhibitor + ActD, WEHI 231
[6] = 30 μM inhibitor + ActD, WEHI 231
[7] = 40 μM inhibitor + ActD, WEHI 231
[8] = 50 μM inhibitor + ActD, WEHI 231
[9] = 100 μM inhibitor + ActD, WEHI 231
[10] = markers in structure designation table

| Molecule | IC50 (caspase 1) | % non-viable cells, inhibitor alone (WEHI 231 cells [1]; 20 μM Inh alone) | % non-viable cells, inhibitor alone (WEHI 231 cells [1]; 100 μM Inh alone) | % non-viable cells (WEHI 231 cells [2]; [3]) | % non-viable cells (WEHI 231 cells [2]; [4]) | % non-viable cells (WEHI 231 cells [2]; [5]) | % non-viable cells (WEHI 231 cells [2]; [6]) | % non-viable cells (WEHI 231 cells [2]; [7]) | % non-viable cells (WEHI 231 cells [2]; [8]) | % non-viable cells (WEHI 231 cells [2]; [9]) | effective concentration in TUNEL test (WEHI 231 cells [2]) | efficacy in TUNEL test, in words (WEHI 231 cells [2]) | rank of result in TUNEL analysis (WEHI 231 cells [2]; Table 3 markers) | rank of result in TUNEL analysis (WEHI 231 cells [2]; [10]) |
| --- | --- | --- | --- | --- | --- | --- | --- | --- | --- | --- | --- | --- | --- | --- |
| COC(=O)C[C@H](NC(=O)[C@@H](NC(=O)NCCc1c[nH]c2ccc(OC)cc12)C(C)C)C(=O)COc1c(F)cccc1F [melatonin-V-D(OMe)—CH2—O—Ph, 5-methoxytrytamine-carbonyl-Val Asp(OMe)-α-(2-oxy-2,6-Difluorophenyl) Methyl Ketone] | ~139 nM |  |  |  |  |  |  |  |  |  |  |  |  |  |
| Q-βAla-Asp(OMe)—CH2—OPh [Inhibitor C^1] |  | 3% | 4% | 88% | 87% | 72% | 71% | 78% | 68% | 3% | 100 µM |  |  |  |
| HQ-Ala-Asp(OMe)—CH2—OPh [Inhibitor E^1] |  | 1% | 1% | 29% | 38% | 13% | 25% | 7% | 12% | 10% | 20 µM |  |  |  |
| hydroxy Trp-TTP-V-D(OMe)—CH2—O—Ph | ~115 nM |  |  |  |  |  |  |  |  |  |  |  |  |  |
| MQ-Ala-Asp(OMe)—CH2—OPh [Inhibitor F^1] |  | 5% | 5% | 32% | 35% | 47% | 61% | 36% | 20% | 21% | not effective |  |  |  |
| COC(=O)CC(NC(=O)C(C)NC(=O)C(NC(=O)OCc1ccccc1)C(C)C)C(=O)CF (stereo not drawn) [Z-VAD-FMK, Benzyloxycarbonyl-Val-Ala-Asp (OMe) fluoromethylketone, reference compound] (Cbz-Val-Ala-Asp(OMe)-CH2F; configuration not given here) |  | 3% | 7% | 33% | 64% | 17% | 19% | 12% | 8% | 6% | 20 µM |  |  |  |
| 4HQ-Ala-Asp(OMe)—CH2—OPh [Inhibitor H^1] |  | 3% | 2% | 81% | 92% | 88% | 91% | 85% | 82% | 83% | not effective |  |  |  |
| indole-(2-carbonyl)-3-V-D(OMe)—CH2—O—Ph | ~460 nM |  |  |  |  |  |  |  |  |  |  |  |  |  |
| COC(=O)CC(NC(=O)CCNC(=O)c1ccc2ccccc2n1)C(=O)CF (stereo not drawn) [Inhibitor A^1, Q-βAla-Asp(OMe)-FMK] |  | 5% | 5% | 62% | 57% | 42% | 40% | 15% | 32% | 9% | 40 µM |  |  |  |
| hydroxy quinoline-(2-carbonyl)-VD-OPh | ~38 nM |  |  |  |  |  |  |  |  |  |  |  |  |  |
| CC(C)[C@H](NC(=O)c1ccc2ccccc2n1)C(=O)N[C@@H](CC(=O)O)C(=O)COc1ccccc1 [quinoline-(2-carbonyl)-V-D-CH2—OPh] | ~50 nM |  |  |  |  |  |  |  |  |  |  |  |  |  |
| Bzl-melatonin-V-D(OMe)—CH2—O—Ph | ~170 nM |  |  |  |  |  |  |  |  |  |  |  |  |  |
| COC(=O)CC(NC(=O)C(C)NC(=O)c1ccc2ccccc2n1)C(=O)CF (stereo not drawn) [Inhibitor D^1, Q-Ala-Asp(OMe)-FMK] |  | 6% | 8% | 88% | 67% | 16% | 2% | 1% | 2% | 1% | 20 µM | most efficacious | D^1* | Q-Ala-Asp(OMe)-FMK* |
| COC(=O)CC(NC(=O)[C@@H](NC(=O)[C@@H](N)Cc1c[nH]c2ccccc12)C(C)C)C(=O)COc1ccccc1 (stereo partly drawn) [TFA Trp-V-D(OMe)—CH2—O—Ph TFA] | ~624 nM |  |  |  |  |  |  |  |  |  |  |  |  |  |
| COC(=O)CC(NC(=O)C(NC(=O)c1ccc2ccccc2n1)C(C)C)C(=O)COc1c(F)cccc1F (stereo not drawn) [Inhibitor I^1, Q-Val-Asp(OMe)—CH2—OPh] |  | 2% | 53% | 88% | 2% | 3% | 2% | 3% | 2% | 2% | 10 µM | most efficacious | I^1*** | Q-Val-Asp(OMe)—CH2—OPh*** |
| COC(=O)CC(NC(=O)C(CC(C)C)NC(=O)c1ccc2ccccc2n1)C(=O)COc1ccccc1 (stereo not drawn) [Inhibitor J^1, Q-Leu-Asp(OMe)—CH2—OPh] | ~940 nM | 1% | 1% | 88% | 16% | 3% | 2% | 2% | 2% | 3% | 10 µM | most efficacious | J^1** | Q-Leu-Asp(OMe)—CH2—OPh** |
| COC(=O)CC(NC(=O)C(C)NC(=O)C(NC(=O)OCc1ccccc1)C(C)C)C(=O)COc1c(F)cccc1F (stereo not drawn) [Inhibitor G^1, 2-Val-Ala-Asp(OMe)—CH2—OPh] |  | 1% | 1% | 56% | 62% | 57% | 52% | 62% | 56% | 8% | 100 µM |  |  |  |
